Results from patent US20190175528A1, “INHIBITION OF BIOFILM ORGANISMS” (NovaBiotics Limited, priority 2009, published 2019).
Read-outs that look alike come from different tables or passages of the source.

Legend:
[1] = system: P. aeruginosa strains (7) biofilm cells; format: cell-based, Pseudomonas aeruginosa; conditions: agent alone
Method: (§1) The FIC was also calculated to assess the interaction of two antimicrobial agents in combination against bacterial biofilms. The same formulae applied, using MBEC instead of MIC.
(§2) A total volume of 100 μl bacterial inoculum in Mueller-Hinton was added to each well of 96-well plates (challenge plates) and the plates were incubated at 37° C. for 24 h on a gyrorotary shaking platform (Grant-bio PS-3D, Shepreth, England) at 24 rpm to allow for biofilm formation.
(§3) The challenge plates were then rinsed once with sterile PBS (lx) and two-fold serial dilutions of antimicrobial agents in Mueller-Hinton were added to the challenge plates. The challenge plates were incubated at 37° C. for 24 h on a gyrorotary shaking platform (Grant-bio PS-3D, Shepreth, England) at 24 rpm.
(§4) The supernatants from each of the challenge plates were transferred into fresh plates and the optical density was measured at 625 nm on a microtitre plate reader (BioTek Powerwave XS, Winooski, USA). The MBEC was obtained by the lowest concentration of antimicrobial showing no bacterial growth.
(§5) Summary of the activity of the tested antimicrobial agents against the Gram-negative P. aeruginosa strains and the Gram-positive Staphylococcus spp. The number into brackets indicates the maximum number of strains tested. MIC: minimum inhibition concentration; MBEC: minimum biofilm eradication concentration; FIC: fractional inhibitory concentration.

[2] = system: P. aeruginosa strains (7) persister cells; experiment: Persister cells in biofilms (live/dead staining), summary over strains; format: cell-based, Pseudomonas aeruginosa; conditions: agent alone
Method: (§6) Following transfer of the supernatant from the challenge plates, the biofilms were rinsed once with sterile PBS (lx) and 100 μl of BacLight live/dead fluorescent staining solution (Invitrogen, Paisley, UK) containing 4 μM SYTO9 and 20 μM propidium iodide (PI) in sterile PBS (lx) were added to the wells of the challenge plates. The plates were incubated at room temperature in the dark for 15 min and the fluorescence was read at 485(ex)/528(em) and 485(ex)/645(em) for SYTO9 and PI fluorescence, respectively on a fluorescence microtitre plate reader (BioTek Synergy HT, Winooski, USA) with the sensitivity set at 50 and bottom optics position was selected. Direct observation of the biofilms with an Axiovert 40 fluorescence microscope (Zeiss, Gottingen, Germany) allowed identifying the presence of live and dead bacteria and pictures of the biofilms were taken at 100 to 400-fold magnification.
(§7) The relative viability of persister cells was determined by the live/dead fluorescence measurements ratio and microscopic observations were used to confirm the presence or absence of live cells.
as §5

Staphylococcus spp (4) = experiment: microbe, parasite or virus in culture; format: cell-based; conditions: agent alone, range over strains
Method: (§8) The bacterial inoculum was established by the dilution method from actively-growing cultures in Mueller-Hinton broth, standardized with 0.5 McFarland turbidity standard as described in the CLSI method M26-A.
(§9) To determine the prevention of biofilm formation, both the bacterial inoculum and the antimicrobial agents were added simultaneously to the plates. The plates were incubated at 37° C. for 24 h and the optical density was read at 625 nm on a microtitre plate reader (BioTek Powerwave XS, Winooski, USA). The MIC was obtained as the lowest concentration of antimicrobial showing total inhibition of bacterial growth.
(§10) The FIC corresponds to an interaction coefficient indicating whether the combination of antimicrobial agents is synergistic, additive, antagonist or neutral. The FIC is determined by comparing the activity of an agent in combination (MIC of agent A+agent B) with the activity of the agent alone (MIC of agent A or agent B) as follow (Singh et al., 2000):
(§11) FIC=MICA[combination]/MICA[alone]+MICB[combination]/MICB[alone]
(§12) Additive combinations of two antimicrobial agents are indicated by a FIC index of 1, whereas a FIC index <1 indicates synergistic combinations. Neutral combinations would give a FIC between 1 and 4, a FIC index higher than 4 indicates antagonist effects between the two antimicrobial agents.
as §5

[3] = system: P. aeruginosa ATCC BAA-47; conditions: data not shown; for bactericidal concentration, P. aeruginosa ATCC BAA-47: agent alone
[4] = system: Staphylococcus spp (4) persister cells; experiment: Persister cells in biofilms (live/dead staining), summary over strains; format: cell-based; conditions: agent alone; for Persisters, active concentration, Staphylococcus spp (4): persister cells
Method: as §6, §7, §5

[5] = system: S. aureus DSM 11729 (MRSA); conditions: data not shown; for bactericidal concentration, S. aureus DSM 11729: agent alone
[6] = system: P. aeruginosa strains (7); experiment: microbe, parasite or virus in culture; format: cell-based, Pseudomonas aeruginosa; conditions: agent alone, range over strains
Method: as §8, §9, §10, §11, §12, §5

[7] = system: Staphylococcus spp (4) biofilm cells; format: cell-based; conditions: agent alone; biofilm cells
Method: as §1, §2, §3, §4, §5

[8] = system: S. aureus DSM 11729 (MRSA); experiment: microbe, parasite or virus in culture; format: cell-based, Staphylococcus aureus
Method: as §8
(§13) To determine the prevention of biofilm formation, both the bacterial inoculum and the antimicrobial agents were added simultaneously to the plates. The plates were incubated at 37° C. for 24 h and the optical density was read at 625 nm on a microtitre plate reader (BioTek Powerwave XS, Winooski, USA). The MIC was obtained as the lowest concentration of antimicrobial showing total inhibition of bacterial growth. […]
(§14) FIC=MICA[combination]/MICA[alone]+MICB[combination]/MICB[alone] […]
(§15) In order to assess for the prevention of biofilm formation by both Gram-positive and Gram-negative bacteria, the bacterial inoculum and antimicrobial agents were added simultaneously in the plates. The range of concentrations of antimicrobial agents was 0-500 μg/ml NP108 and 0-320 μg/ml cysteamine against the Gram-negative bacteria P. aeruginosa ATCC BAA-47 and 0-1000 μg/ml NP108 and 0-320 μg/ml cysteamine against the Gram-positive MRSA.

[9] = system: S. aureus DSM 11729 biofilm cells; format: cell-based, Staphylococcus aureus
Method: as §1, §2, §3, §4
(§16) The assessment of the activity of NP108 and cysteamine against bacterial biofilms was carried out with 24 h-old biofilms and the activity of both compounds in combination was also determined. The activity of the antimicrobial agents against bacterial biofilms was determined by their activity against the biofilm cells and against the persister cells.

[10] = system: S. aureus DSM 11729 persister cells; experiment: Relative viability of persister cells (SYTO9/PI live/dead fluorescence, microscopy); format: cell-based, Staphylococcus aureus; conditions: agent alone, at low concentrations; FIG. 18
Method: as §6, §7
The activity of NP108 and cysteamine against the persister cells was assessed using a fluorescence staining method to determine the relative viability of the cells. […]

[11] = system: P. aeruginosa ATCC27853 biofilm cells; format: cell-based, Pseudomonas aeruginosa; conditions: for MBEC alone, P. aeruginosa ATCC27853: agent alone, FIG. 21a
Method: as §2, §3, §4

[12] = system: P. aeruginosa ATCC BAA-47; experiment: microbe, parasite or virus in culture; format: cell-based, Pseudomonas aeruginosa
Method: as §8, §13, §14, §15

[13] = system: P. aeruginosa ATCC BAA-47 (PAO1) persister cells; experiment: Relative viability of persister cells (SYTO9/PI live/dead fluorescence, microscopy); format: cell-based, Pseudomonas aeruginosa; conditions: agent alone; for activity against persister cells of P. aeruginosa ATCC BAA-47: relative viability remained significant, FIG. 12
Method: as §6, §7
The activity of NP108 and cysteamine against the persister cells was assessed using a fluorescence staining method to determine the relative viability of the cells. The nucleic acid-binding fluorescent molecules used were SYTO9 and PI, which penetrate all bacterial cells (green fluorescence) and membrane-disrupted cells (red fluorescence), respectively.

[14] = system: P. aeruginosa ATCC BAA-47 (PAO1) biofilm cells; experiment: MBEC against 24 h-old biofilm; format: cell-based, Pseudomonas aeruginosa
Method: as §1, §2, §3, §4, §16

[15] = system: Gram-positive and Gram-negative persister cells; experiment: Relative viability of persister cells (SYTO9/PI live/dead fluorescence); format: cell-based; conditions: lowest concentration tested; FIG. 10
Method: as §6, §7

[16] = system: S. epidermidis 12228 biofilm cells; experiment: MBEC against 24 h-old biofilm; format: cell-based, Staphylococcus epidermidis; conditions: agent alone
Method: as §2, §3, §4, §16

[17] = system: methicillin-resistant S. aureus (MRSA) DSM 11729 planktonic cells; experiment: Time course activity over a 48-h period against planktonic cells; format: cell-based, Staphylococcus aureus; conditions: 0.25 mg/ml
Excerpt: The range of concentrations tested as shown in the legends is in mg/ml.

[18] = system: P. aeruginosa ATCC27853 persister cells; experiment: Relative viability of persister cells (SYTO9/PI live/dead fluorescence); format: cell-based, Pseudomonas aeruginosa; conditions: 1024 μg/ml NP341+3128 μg/ml N-acetylcysteine; FIG. 20b
Method: as §6, §7

[19] = agent alone, prevention of biofilm formation, 24 h

| Compound | MBEC, P. aeruginosa strains (7) [1] | Persisters, active concentration, P. aeruginosa strains (7) [2] | bactericidal concentration, P. aeruginosa ATCC BAA-47 [3] [µg/mL] | Persisters, active concentration, Staphylococcus spp (4) [4] | bactericidal concentration, S. aureus DSM 11729 [5] | MBEC, Staphylococcus spp (4) [7] | MBEC, S. aureus (MRSA) DSM 11729 biofilm cells ([9]; agent alone) [µg/mL] | activity against persister cells of S. aureus DSM 11729 [10] | MBEC alone, P. aeruginosa ATCC27853 [11] | activity against persister cells of P. aeruginosa ATCC BAA-47 [13] | MBEC [alone], P. aeruginosa ATCC BAA-47 biofilm cells ([14]; agent alone) [µg/mL] | MIC, Staphylococcus spp (4) (Staphylococcus spp (4)) [µg/mL] | MIC, P. aeruginosa strains (7) [6] [µg/mL] | also measured |
| --- | --- | --- | --- | --- | --- | --- | --- | --- | --- | --- | --- | --- | --- | --- |
| NCCS [Cysteamine, cysteamine, reference compound] | >5,000 μg/ml | 500-6,250 μg/ml | > 320 | 6,250-12,500 μg/ml | more than 320 μg/ml | >25,000 μg/ml | 250 | lack of activity | more than 100 mg/ml | lack of activity | > 100.00 | – | – | MIC (Staphylococcus spp (4); Staphylococcus): 300 to 625 µg/mL; MIC ([6]; Pseudomonas aeruginosa): 300 to 2500 µg/mL; MIC ([8]; Staphylococcus aureus, agent alone, prevention of biofilm formation, 24 h): > 320 µg/mL; MBEC cysteamine[combination], S. aureus DSM 11729 biofilm cells ([9]; with 31.25 μg/ml NP108): 62.5 µg/mL; MIC ([12]; Pseudomonas aeruginosa, ATCCBAA47, agent alone, prevention of biofilm formation, 24 h): 320 µg/mL; MBEC cysteamine[combination], P. aeruginosa ATCC BAA-47 biofilm cells ([14]; with 250 μg/ml NP108): 62.5 µg/mL; concentration that suppressed the viability of Gram-positive and Gram-negative persister cells [15]: ≤ 6.25 mg/mL |
| N=C(N)NCCC[C@@H](N)C(=O)N[C@H](CCCNC(=N)N)C(=O)N[C@H](CCCNC(=N)N)C(=O)N[C@H](CCCNC(=N)N)C(=O)N[C@H](CCCNC(=N)N)C(=O)N[C@H](CCCNC(=N)N)C(=O)N[C@H](CCCNC(=N)N)C(=O)N[C@H](CCCNC(=N)N)C(=O)N[C@H](CCCNC(=N)N)C(=O)N[C@H](CCCNC(=N)N)C(=O)N[C@H](CCCNC(=N)N)C(=O)N[C@H](CCCNC(=N)N)C(=O)N[C@H](CCCNC(=N)N)C(N)=O [NP341, dRdRdRdRdRdRdRdRdRdRdRdRdR-CONH] | >5,000 μg/ml | 625 µg/mL | – | – | – | – | 625 | – | more than 2 mg/ml | – | – | 250 | 31.25 | decrease of viability of persister cells of the 3 Staphylococcus species ([4]; FIG. 8): 25 to 50%; MBEC, S. epidermidis 12228 biofilm cells [16]: 625 µg/mL; reduction of viability of biofilm cells, MRSA 11729 ([9]; agent alone, FIG. 7): 2 to 3 fold; NP341 needed to reach the MBEC in combination, P. aeruginosa ATCC27853 ([11]; in combination with 3-6 mg/ml of N-acetylcysteine, FIG. 20a): 205 µg/mL; duration of complete inhibition [17]: 48 h; inhibition of persister cells, P. aeruginosa ATCC27853 [18]: approximately 75%; concentration that inhibits the viability of P. aeruginosa BAA-47 (PAO1) persister cells ([13]; FIG. 6, FIG. 8): 625 µg/mL; reduction of viability of biofilm cells, P. aeruginosa BAA-47 (PAO1) ([14]; agent alone, FIG. 7): 2 to 3 fold |
| poly-L-lysine, hydrobromide [NP108] | – | – | 250 | >500 µg/mL | 125 µg/mL | 125 to 250 µg/mL | 125 | lack of activity | – | lack of activity | > 500 | 16 to 125 | 31.25 to 500 | bactericidal concentration of NP108 in combination, P. aeruginosa ATCC BAA-47 ([3]; with 320 μg/ml cysteamine): 125 µg/mL; bactericidal concentration of NP108 in combination, S. aureus DSM 11729 ([5]; with ≥80 μg/ml cysteamine): 62.5 µg/mL; bactericidal concentration of NP108 in combination, S. aureus DSM 11729 ([5]; with ≥160 μg/ml cysteamine): 31.25 µg/mL; MIC of NP108 in the presence of cysteamine, S. aureus DSM 11729 ([8]; 320 μg/ml cysteamine added): 15.625 µg/mL; MIC, S. aureus DSM 11729 [8, 19]: 125 µg/mL; MIC of NP108 in the presence of cysteamine, S. aureus DSM 11729 ([8]; in the presence of 40 μg/ml cysteamine): 31.25 µg/mL; MBEC NP108[combination], S. aureus DSM 11729 biofilm cells ([9]; with 62.5 μg/ml cysteamine): 31.25 µg/mL; MIC, P. aeruginosa ATCC BAA-47 [12, 19]: 62.5 µg/mL; MIC of NP108 in the presence of cysteamine, P. aeruginosa ATCC BAA-47 ([12]; in the presence of 160 μg/ml cysteamine): 31.25 µg/mL; NP108 concentration giving complete inhibition of bacterial growth, P. aeruginosa ATCC BAA-47 biofilm cells ([14]; with 31.25 μg/ml cysteamine): 500 µg/mL; MBEC NP108[combination], P. aeruginosa ATCC BAA-47 biofilm cells ([14]; with 62.5 to 500 μg/ml cysteamine): 250 µg/mL |
